Here are results for 18 molecules from US5945404A, “21-Substituted steroid compound” (priority 1993, dated 1999).

Data set [1] has as its system croton oil-induced granuloma. The data set is described as follows: Croton Oil-induced Granuloma (granuloma pouch). In kind it is in vivo, male Sprague-Dawley rats. Particulars: for inhibition in vivo at 1 mg / inhibition in vivo at 0.01 mg / inhibition in vivo at 0.1 mg: Rattus norvegicus, 168 h. The protocol: Groups of 5 male Sprague-Dawley rats each weighing 160-180 g were used. Under ether anesthesia, the dorsum of animals was closely clipped, and air sac was formed by injecting air (20 ml) subcutaneously. Next day cotton seed oil containing 1% croton oil was injected into the air sac. Drugs to be tested were suspended in the cotton seed oil containing 1% croton oil, and administered. After 7 days, the blood was taken from the animal under ether anesthesia. Then, the granuloma pouch fluid (exudate) was collected, and the fluid volume was measured. The pouch wall formed around granuloma and thymus were also excised and weighed.

The test system of another data set is granuloma. The data set is described as follows: Inhibitory Effects on Granuloma Growth (Paper Disk Method). The class given is in vivo, male Sprague-Dawley rats. Particulars: Rattus norvegicus, topical, 168 h, rat, paper disk; ointment 0.1%, 50 mg once a day, 7 days; read-out: Weight of granuloma, per cent of change of the controls. How it is done: Ointment to be tested was prepared usign white soft paraffin as the base and containing dexamethasone at 0.1% concentration.
Groups of 5 male Sprague-Dawley rats each weighing 150-170 g were used. Under ether anesthesia, the dorsum of animals was closely clipped, and medianly incised. After each one pre-weighed paper disk (8-mm diameter, 1-mm thick, weighing about 30 mg; Toyo-Roshi filter paper) was inserted subcutaneously into both sides of the dorsal incision, the incision was sutured. In order to prevent bacterial infection, penicillin G potassium salt (2,000 units) per rat was intramascularly injected after the surgery. Base or ointment to be tested (50 mg each) was rubbed carefully into the skin over the paper disk inserted site, for 30 seconds once a day for the duration of 7 days. Rats were slipped plastic cangs on to prevent them from licking the drug applied sites. On the 8th day of the test, rats were sacrificed under ether anesthesia, and granulomas were carefully excised. Granulomas were dried at 40° C. for 24 h, and their dry weights were recorded.
Inhibitory effects of dexamethasone derivatives on the weight increase of granuloma of experimental animals as compared with those of control animals are shown as per cent of inhibition ov er the control in Table 1. Figures wihth asterisks in the table indicate signfiicant difference. The same will be applied to the following other tables.

The mark [2] stands for this setting: 1.0 mg/rat, 7 days, read-out: Effects on granuloma weight, per cent of inhibition over the control.
The mark [3] stands for this setting: 1.0 mg/rat, 7 days, read-out: Effects on pouch fluid (exudate) volume, per cent of inhibition over the control.
[4] abbreviates: 0.01 mg/rat, 7 days, read-out: Effects on granuloma weight, per cent of inhibition over the control.
The mark [5] stands for this setting: 0.01 mg/rat, 7 days, read-out: Effects on pouch fluid (exudate) volume, per cent of inhibition over the control.
Setting [6] is: 0.1 mg/rat, 7 days, read-out: Effects on granuloma weight, per cent of inhibition over the control.
Where [7] appears, read: 0.1 mg/rat, 7 days, read-out: Effects on pouch fluid (exudate) volume, per cent of inhibition over the control.
The mark [8] stands for this setting: read-out: Effects on granuloma weight, per cent of inhibition over the control.

Where “and” joins values, the source holds several entries; their conditions need not be identical. Identical values can stand only once. Like-named read-outs stand apart in the source and are kept apart here.

As to `CCC(=O)O[C@]1(C(=O)COC(C)=O)[C@@H](C)C[C@H]2[C@@H]3CCC4=CC(=O)C=C[C@]4(C)[C@@]3(F)[C@@H](O)C[C@@]21C` [Betamethasone acetate propionate, reference compound], the “Effects on granuloma weight, per cent of inhibition over the control” value came to 21.2 ± 6.4 per cent in data set [1] (0.01 mg/rat, 7 days) and 26.0 ± 6.9 per cent in data set [1] (0.1 mg/rat, 7 days). Further, the “Effects on pouch fluid (exudate) volume, per cent of inhibition over the control” value in data set [1] (rat, in vivo) was 27.6 ± 8.1 and 43.6 ± 4.7.

Consider `CCCCC(=O)O[C@]1(C(=O)CO)[C@@H](C)C[C@H]2[C@@H]3CCC4=CC(=O)C=C[C@]4(C)[C@@]3(F)[C@@H](O)C[C@@]21C` [Betamethasone valerate, reference compound], for which the “Effects on thymus weight, per cent of inhibition over the control thymus weight” value in data set [1] (1.0 mg/rat, 7 days) is 37.0 ± 3.0 per cent and 58.9 ± 3.3 per cent. For the same molecule, the inhibition in vivo at 1 mg came out at 18.7 ± 11.7% in data set [1] (setting [2]) and 23.9 ± 12.1% in data set [1] (setting [3]).

Consider `Cc1ccc(C(=O)OC[C@H]2O[C@H](OCC(=O)[C@@]3(O)[C@H](C)C[C@H]4[C@@H]5CCC6=CC(=O)C=C[C@]6(C)[C@@]5(F)[C@@H](O)C[C@@]43C)[C@H](OC(=O)c3ccc(C)cc3)[C@@H](OC(=O)c3ccc(C)cc3)[C@@H]2OC(=O)c2ccc(C)cc2)cc1` [Compound 4α], for which, in the data set with granuloma, the change in vivo at 0.1 %, 50 mg was -0.6 ± 5.1%.

For `Cc1ccc(C(=O)OC[C@H]2O[C@@H](OCC(=O)[C@@]3(O)[C@H](C)C[C@H]4[C@@H]5CCC6=CC(=O)C=C[C@]6(C)[C@@]5(F)[C@@H](O)C[C@@]43C)[C@H](OC(=O)c3ccc(C)cc3)[C@@H](OC(=O)c3ccc(C)cc3)[C@@H]2OC(=O)c2ccc(C)cc2)cc1` [Compound 4β], in the data set on granuloma, the change in vivo at 0.1 %, 50 mg is -7.9 ± 5%.

Regarding `Cc1ccc(C(=O)OC[C@H]2O[C@H](OCC(=O)[C@@]3(O)[C@H](C)C[C@H]4[C@@H]5CCC6=CC(=O)C=C[C@]6(C)[C@@]5(F)[C@@H](O)C[C@@]43C)[C@H](OC(=O)c3ccc(C)cc3)[C@@H](OC(=O)c3ccc(C)cc3)[C@H]2OC(=O)c2ccc(C)cc2)cc1` [Compound 14α], the change in vivo at 0.1 %, 50 mg in the data set with granuloma was 5.7 ± 1.9%.

For the molecule `Cc1ccc(C(=O)OC[C@H]2O[C@@H](OCC(=O)[C@@]3(O)[C@H](C)C[C@H]4[C@@H]5CCC6=CC(=O)C=C[C@]6(C)[C@@]5(F)[C@@H](O)C[C@@]43C)[C@H](OC(=O)c3ccc(C)cc3)[C@@H](OC(=O)c3ccc(C)cc3)[C@H]2OC(=O)c2ccc(C)cc2)cc1` [Compound 14β], in the data set on granuloma, the change in vivo at 0.1 %, 50 mg is -8.7 ± 7.2%.

With `Cc1ccc(C(=O)OC[C@H]2O[C@H](OCC(=O)[C@@]3(O)[C@H](C)C[C@H]4[C@@H]5CCC6=CC(=O)C=C[C@]6(C)[C@@]5(F)[C@@H](O)C[C@@]43C)[C@@H](OC(=O)c3ccc(C)cc3)[C@@H](OC(=O)c3ccc(C)cc3)[C@@H]2OC(=O)c2ccc(C)cc2)cc1` [Compound 24α, mannosyldexamethasone], the change in vivo at 0.1 %, 50 mg in the data set on granuloma was -3.7 ± 4.5%.

`CC(=O)N[C@H]1[C@H](OCC(=O)[C@@]2(O)[C@H](C)C[C@H]3[C@@H]4CCC5=CC(=O)C=C[C@]5(C)[C@@]4(F)[C@@H](O)C[C@@]32C)O[C@H](COC(C)=O)[C@@H](OC(C)=O)[C@@H]1OC(C)=O` [Compound 34β, N-acetylglucosaminyldexamethasone]: the change in vivo at 0.1 %, 50 mg with granuloma is -21.3 ± 3.9%.

On to `CC(=O)N[C@H]1[C@H](OCC(=O)[C@@]2(O)[C@H](C)C[C@H]3[C@@H]4CCC5=CC(=O)C=C[C@]5(C)[C@@]4(F)[C@@H](O)C[C@@]32C)O[C@H](CO)[C@@H](O)[C@@H]1O` [Compound 35β, β-N-acetylglucosaminyldexamethasone], for which, in the data set with granuloma, the change in vivo at 0.1 %, 50 mg was -21.9 ± 4.2%.

With `CC(=O)N[C@H]1[C@H](OCC(=O)[C@@]2(O)[C@H](C)C[C@H]3[C@@H]4CCC5=CC(=O)C=C[C@]5(C)[C@@]4(F)[C@@H](O)C[C@@]32C)O[C@H](COC(C)=O)[C@H](OC(C)=O)[C@@H]1OC(C)=O` [Compound 44β], the change in vivo at 0.1 %, 50 mg in the data set on granuloma is -16.5 ± 3%.

With `Cc1ccc(C(=O)OC[C@H]2O[C@@H](OCC(=O)[C@@]3(O)[C@@H](C)C[C@H]4[C@@H]5CCC6=CC(=O)C=C[C@]6(C)[C@@]5(F)[C@@H](O)C[C@@]43C)[C@H](OC(=O)c3ccc(C)cc3)[C@@H](OC(=O)c3ccc(C)cc3)[C@@H]2OC(=O)c2ccc(C)cc2)cc1` [Compound 91β, Glucosylbetamethasone (per Tol)], the inhibition in vivo at 0.01 mg in data set [1] (setting [4]) worked out at 17.1 ± 6.7%; in data set [1] (setting [5]) it was 25.3 ± 5.3%. Besides, the figures for the inhibition in vivo at 0.1 mg in data set [1] (setting [6]) and in data set [1] (setting [7]) were 6.9 ± 5.1% and 18.4 ± 6.1%, respectively. Also, the inhibition in vivo at 1 mg was 4.3 ± 8.2% in data set [1] (setting [2]) and 18.9 ± 8.8% in data set [1] (setting [3]).

Turning to `C[C@H]1C[C@H]2[C@@H]3CCC4=CC(=O)C=C[C@]4(C)[C@@]3(F)[C@@H](O)C[C@]2(C)[C@@]1(O)C(=O)CO[C@@H]1O[C@H](COC(=O)c2ccccc2)[C@@H](OC(=O)c2ccccc2)[C@H](OC(=O)c2ccccc2)[C@H]1OC(=O)c1ccccc1` [Compound 100β, glucosylbetamethasone (benzoyl derivative)], the inhibition in vivo at 0.01 mg in data set [1] (setting [4]) came out at 11 ± 6.5%; in data set [1] (setting [5]), 20.8 ± 11.7%. Further, the figures for the inhibition in vivo at 0.1 mg in data set [1] (setting [6]) and in data set [1] (setting [7]) were 4.1 ± 11.3% and 17.5 ± 5.9%, respectively. Moreover, the inhibition in vivo at 1 mg was 60.5 ± 5.8% in data set [1] (setting [2]) and 69.4 ± 6.7% in data set [1] (setting [3]).

As for `C[C@@H]1C[C@H]2[C@@H]3C[C@H](F)C4=CC(=O)C=C[C@]4(C)[C@@]3(F)[C@@H](O)C[C@]2(C)[C@H]1C(=O)CO[C@@H]1O[C@H](COC(=O)c2ccccc2)[C@@H](OC(=O)c2ccccc2)[C@H](OC(=O)c2ccccc2)[C@H]1OC(=O)c1ccccc1` [Compound 110β, glucosyldiflucortolone (benzoyl derivative)], the inhibition in vivo at 0.01 mg in data set [1] (setting [4]) was 16.8 ± 7.1%; in data set [1] (setting [5]), 34.4 ± 8.9%. Also, the results for the inhibition in vivo at 0.1 mg in data set [1] (setting [6]) and in data set [1] (setting [7]) were 58.7 ± 1.4% and 79.6 ± 8.5%, respectively. The figures for the inhibition in vivo at 1 mg in data set [1] (setting [2]) and in data set [1] (setting [3]) were 70.3 ± 1.9% and 97.2 ± 0.5%, respectively.

On to `C[C@@H]1C[C@H]2[C@@H]3C[C@H](F)C4=CC(=O)C=C[C@]4(C)[C@@]3(F)[C@@H](O)C[C@]2(C)[C@H]1C(=O)CO[C@@H]1O[C@H](COC(=O)c2ccc(Cl)cc2)[C@@H](OC(=O)c2ccc(Cl)cc2)[C@H](OC(=O)c2ccc(Cl)cc2)[C@H]1OC(=O)c1ccc(Cl)cc1` [Compound 112β, glucosyldiflucortolone (p-chlorobenzoyl derivative)], for which the inhibition in vivo at 0.01 mg was 15.9 ± 6.9% in data set [1] (setting [4]) and 36.1 ± 9.2% in data set [1] (setting [5]). For the same molecule, the inhibition in vivo at 0.1 mg in data set [1] (setting [6]) was found to be 27.1 ± 2.4%; in data set [1] (setting [7]) it was 43.7 ± 2.5%. The inhibition in vivo at 1 mg turned out to be 61.3 ± 2.2% in data set [1] (setting [2]) and 93.1 ± 1.6% in data set [1] (setting [3]).

Regarding `CC(=O)OC[C@H]1O[C@@H](OCC(=O)[C@H]2[C@H](C)C[C@H]3[C@@H]4C[C@H](F)C5=CC(=O)C=C[C@]5(C)[C@@]4(F)[C@@H](O)C[C@@]32C)[C@H](OC(C)=O)[C@@H](OC(C)=O)[C@@H]1OC(C)=O` [Compound 113β, glucosyldiflucortolone (acetyl derivative)], the inhibition in vivo at 0.01 mg was determined as 47.4 ± 11% in data set [1] (setting [4]) and 90.5 ± 6.6% in data set [1] (setting [5]). The results for the inhibition in vivo at 0.1 mg in data set [1] (setting [6]) and in data set [1] (setting [7]) were 60.8 ± 9.3% and 97.1 ± 0.5%, respectively. Also, the inhibition in vivo at 1 mg in data set [1] (setting [2]) turned out to be 90.5 ± 0.6%; in data set [1] (setting [3]) it was 97.5 ± 0.7%.

On to `CCCCC(=O)OCC(=O)[C@H]1[C@H](C)C[C@H]2[C@@H]3C[C@H](F)C4=CC(=O)C=C[C@]4(C)[C@@]3(F)[C@@H](O)C[C@@]21C` [Diflucortolone valerate, reference compound], for which, in data set [1] (setting [8]), the inhibition in vivo at 0.01 mg is 12.8 ± 5.1% and the inhibition in vivo at 1 mg turned out to be 66 ± 7.1%.

Turning to `CCCC(=O)O[C@]1(C(=O)COC(C)=O)CC[C@H]2[C@@H]3C[C@H](F)C4=CC(=O)C=C[C@]4(C)[C@@]3(F)[C@@H](O)C[C@@]21C` [Diflupredonate, reference compound], the “Effects on thymus weight, per cent of inhibition over the control thymus weight” value in data set [1] (0.01 mg/rat, 7 days) turned out to be 14.7 ± 10.4 per cent; in data set [1] (0.1 mg/rat, 7 days), 71.2 ± 2.9 per cent; in data set [1] (1.0 mg/rat, 7 days), 71.8 ± 3.2 per cent. The figures for the inhibition in vivo at 0.01 mg in data set [1] (setting [4]) and in data set [1] (setting [5]) were -11 ± 23.1% and 17.4 ± 13.5%, respectively. The results for the inhibition in vivo at 0.1 mg in data set [1] (setting [6]) and in data set [1] (setting [7]) were 35 ± 10.3% and 65.3 ± 12.1%, respectively. In addition, the inhibition in vivo at 1 mg was determined as 78.8 ± 5% in data set [1] (setting [2]) and 96.2 ± 1.2% in data set [1] (setting [3]).

On to “Diflurasone acetate [reference compound]”, for which the “Effects on granuloma weight, per cent of inhibition over the control” value in data set [1] (0.01 mg/rat, 7 days) is reported as -13.1 ± 13.3 per cent; in data set [1] (0.1 mg/rat, 7 days) it was 4.0 ± 10.5 per cent; in data set [1] (1.0 mg/rat, 7 days), 11.7 ± 12.4 per cent.
